Source: patent publication EP1283052A1, “Pharmaceutical composition containing caspase-8 and /or caspase-9 useful for overcoming glucocorticoid- and cancer therapy-induced apoptosis of tumours” (Deutsches Krebsforschungszentrum Stiftung des öffentlichen …, priority 2001, dated 2003)

Test system: caspase-8
Experiment: Fluorometric caspase-8 activity assay in CEM cells
Assay type: cell-based, human
Settings: cisplatin 2 µg/ml alone, Fig. 2b
Experimental: • (a) Left: P5 an CEM cells were treated with cisplatin (1-5 µg/ml) in the absence or presence of DEX (1 µM) as indicated. Proteins were extracted and expression of CD95-L, TRAIL or TNF-α was detected by Western blot analysis. The size of the proteins in kDa is indicated. Right: HeLa and P5 were treated with CD95 agonistic antibody αAPO-1 (CD95, 1 µg/ml), recombinant TRAIL protein (TRAIL, 100 ng/ml) or recombinant TNF-α protein (TNF-α, 100 ng/ml) in the absence (white bars) or presence (black bars) of DEX (1 µM). 24 h later the percentage of apoptosis was determined by annexin-staining and FACS-analysis in untreated (CO) and stimulated cells at the time points indicated. • (b) P693 and CEM cells were treated with cisplatin (2 µg/ml) in the absence or presence of DEX as indicated. 24 and 48 h following treatment cells were lysed and caspase-8 activity was determined by a fluorescent caspase-8 assay and spectroscopy. • (c) P5 cells were stable transfected with empty vector (pcDNA3), or pcDNA3 vector encoding dominant negative FADD protein (FADD-DN). Proteins were extracted from both cell lines and expression of wildtype (WT) and FADD-DN (DN) was detected by Western blot. Left: Stable transfected P5 cells were treated with αAPO-1 (1 µg/ml) and 24 h later apoptosis was determined by staining with annexin/propidium iodide and flow-cytometry. […]

Structure (SMILES): N.N.[Cl][Pt][Cl] [cisplatin]
- activity of caspase-8: responded earlier at 24 h with increased activity at 48 h
